The values below come from publication PMC6385889 (Chemical biology & drug design, 2011).

Data set [1] deals with HIV-1 containing wild-type (WT) integrase. Put plainly: Antiviral assay, cells infected with HIV-1 vector containing WT integrase. It counts as cell-based.
The nature of data set [2]: Cellular cytotoxicity. Format: cell-based, human. As to conditions: human, HOS osteosarcoma cells.
The test system of data set [3] is HOS cells. Put plainly: Cellular cytotoxicity. Format: cell-based, human. As to conditions: HOS cells.
Data set [4] has as its system HIV-1 containing G140S/Q148H integrase. Format: cell-based. The note with it: cells infected with mutant vector.
For data set [5], the system named is HIV-1 integrase G140S/Q148H. As to conditions: mutant enzyme vs WT enzyme; pre-cleaved DNA, Mg2+.
Data set [6] has as its system HIV-1 containing Y143R integrase. Format: cell-based. As to conditions: cells infected with mutant vector.
Data set [7] deals with HIV-1 integrase Y143R. In words: In vitro ST assay, Y143R mutant IN. It counts as biochemical. The note with it: mutant enzyme vs WT enzyme; pre-cleaved DNA, Mg2+.
In data set [8] the test system is HIV-1 containing N155H integrase. Format: cell-based. As to conditions: cells infected with mutant vector.
For data set [9], the system named is HIV-1 integrase N155H. In words: In vitro ST assay, N155H mutant IN. It counts as biochemical.
Setting [10] is: Human immunodeficiency virus 1, read-out: EC50 (WT).

Values joined by “and” are separate entries in the source; they are usually repeats but may differ in a detail not shown here. Identical values can stand only once. Like-named read-outs stand apart in the source and are kept apart here.

Regarding `COC(=O)CCc1c2c(c(O)c(=O)n1C(C)C)C(=O)N(Cc1ccc(F)c(Cl)c1)C2=O` [5e, Methyl 3-(2-(3-chloro-4-fluorobenzyl)-7-hydroxy-5-isopropyl-1,3,6-trioxo-2,3,5,6-tetrahydro-1H-pyrrolo[3,4-c]pyridin-4-yl)propanoate], in data set [1] (setting [10]), the concentration for a half-maximal effect (EC50) was 9.2 ± 1.9 µM. Moreover, in data set [2], the CC50 at 48 h turned out to be 392 ± 66 µM. Further, the “Cytotoxicity fold lower than catechol-containing analogue 3” value in [3] (ratio of CC50 values) is “approximately 70 fold”. In data set [4], the “Fold-loss of antiviral potency relative to virus containing WT enzyme, G140S/Q148H” value was 2 fold and 2x fold. In data set [5], the “Fold-loss of potency relative to WT, G140S/Q148H (ST, in vitro)” value is 12 fold and 12x fold. Also, the “Fold-loss of antiviral potency relative to virus containing WT enzyme, Y143R” value in data set [6] was 2 fold and 2x fold. For the same molecule, the “Fold-loss of potency relative to WT, Y143R (ST, in vitro)” value in [7] is 2 fold and 2x fold. Also, the “Fold-loss of antiviral potency relative to virus containing WT enzyme, N155H” value in data set [8] is 3 fold and 3x fold. Moreover, in data set [9] (comparison of fold-losses, enzyme assay), the “Fold less sensitive than raltegravir to N155H mutation (in vitro)” value is “approximately 2 fold”. For the same molecule, in data set [9] (mutant enzyme vs WT enzyme, pre-cleaved DNA, Mg2+), the “Fold-loss of potency relative to WT, N155H (ST, in vitro)” value was 4 fold and 4x fold.

As for `CC(C)n1c(C(=O)N(C)C)c2c(c(O)c1=O)C(=O)N(Cc1ccc(F)c(Cl)c1)CC2` [compound 2, MK-0536, reference compound], the EC50 in [1] (read-out: EC50 (WT), HIV-1 vector with WT integrase) is 0.017 ± 0.004 µM. In [3] (48 hrs), this molecule displayed a CC50 greater than 100 µM. The “Fold-loss of antiviral potency relative to virus containing WT enzyme, G140S/Q148H” value in data set [4] turned out to be 5x fold; in data set [4] (listed as MK-0536), 5 fold. For the same molecule, the “Fold-loss of antiviral potency relative to virus containing WT enzyme, Y143R” value in data set [6] is listed as 0.4x fold. For the same molecule, the “Fold-loss of antiviral potency relative to virus containing WT enzyme, N155H” value in [8] was 1x fold.

Turning to `Cc1nnc(C(=O)NC(C)(C)c2nc(C(=O)NCc3ccc(F)cc3)c(O)c(=O)n2C)o1` [compound 1, raltegravir, reference compound], in data set [1] (setting [10]), the EC50 is 0.004 ± 0.002 µM. In data set [2], the CC50 at 48 h is greater than 100 µM.

By EC50 is commonly meant the midpoint of the concentration-response curve. The term CC50 denotes the concentration that lowers cell viability or growth by half.
